{
  "source": "patent US10632106B2",
  "about": "“Methods of cancer treatment with 2-(1′H-Indole-3′-carbonyl)-thiazole-4-carboxylic acid methyl ester” (Ariagen, Inc., priority 2009, dated 2020)",
  "assay_type_in_all_cases": "in vivo",
  "key": {"[1]": {"system": "CFPAC-1 (human pancreatic cancer) xenografts", "assay": "CFPAC-1 xenograft growth inhibition", "settings": "ITE 100-200 mg/kg i.p. once daily", "experimental": "(§1) All the procedures related to animal handling, care, and the treatment in the study were performed following guidelines of KeyGen Biotechn Co., Ltd. (Nanjing, China), a contract research organization we hired, based on the guidance of the Association for Assessment and Accreditation of Laboratory Animal Care (AAALAC). Animals were checked for any effects of tumor growth and drug treatment on normal behavior such as mobility, food and water consumption, body weight gain/loss (bodyweights were measured every two days), eye/hair matting, and any other abnormal effect. Death and observed clinical signs were recorded. Individual animals with a tumor volume exceeding 3,000 mm^3 or animals of a group with a mean tumor volume exceeding 2,000 mm^3 were euthanized. In addition, animals showing signs of severe distress and/or pain or losing the capability of accessing adequate food or water were humanely sacrificed.\n(§2) Cell lines HCT116, Siha, MFC were cultured in DMEM medium (high glucose) supplemented with 10% fetal bovine serum (FBS), SW116 and T24 in RPMI-1640 medium with 10% FBS, M14 and A375 in DMEM medium (high glucose) with 10% calf serum (CS), SGC7901 and Ketr-3 in RPMI-1640 medium with 10% CS, and CFPAC-1 in IMDM medium with 10% FBS. All of the cells were cultured, in the presence of 100 U/ml penicillin and 100 μg/ml streptomycin, at 37° C. in an atmosphere of 5% CO2 in air. […] The cells growing in an exponential phase were harvested and counted for tumor inoculation. Cell lines 5180 and U14 were maintained in ascites (peritoneal cavity fluid) of mice and were harvested and counted for tumor inoculation. […]\n(§3) Tumor volume was measured every two days in two dimensions using a caliper and the volume was calculated with a formula of: V=0.5 a×b^2, where a and b are the long and short diameter (in mm) of a tumor, respectively. […] The TGD was calculated as: TGD=T−C, where T was the time (in days) required for tumors in a drug treated group to reach a predetermined mean tumor volume and C the time (in days) in the control group to reach the same volume. […]"}, "[2]": {"system": "M14 (human skin cancer) xenografts", "assay": "M14 xenograft growth inhibition", "settings": "ITE 100-200 mg/kg i.p. once daily", "experimental": "as §1, §2, §3"}, "[3]": {"system": "U14 (mouse cervical cancer) homografts", "assay": "U14 homograft (syngeneic) growth inhibition in ICR mice", "settings": "ITE 200 mg/kg i.p. once daily", "experimental": "as §1, §2, §3"}, "[4]": {"settings": "TGI at day 26, TGI=(1−ΔT/ΔC)×100%"}, "[5]": {"settings": "end of therapy relative to beginning"}},
  "data": [
    {"smiles": "COC(=O)c1csc(C(=O)c2c[nH]c3ccccc23)n1", "note": "[ITE, 2-(1′H-indole-3′-carbonyl)-thiazole-4-carboxylic acid methyl ester]", "values": [
      {"measurement": "TGD", "setting": "[1]; TGD at Vol. 1,000", "value": 8, "unit": "days"},
      {"measurement": "TGI (%)", "setting": "[1]; [4]", "value": 58, "unit": "%"},
      {"measurement": "Weight Loss", "setting": "[1]; [5]", "value": 14, "unit": "%"},
      {"measurement": "TGD", "setting": "[2]; TGD at Vol. 1,000", "value": 5, "unit": "days"},
      {"measurement": "TGI (%)", "setting": "[2]; [4]", "value": 48, "unit": "%"},
      {"measurement": "Weight Loss", "setting": "[2]; [5]", "value": 15, "unit": "%"},
      {"measurement": "TGD", "setting": "[3]; TGD at Vol. 2,000", "value": 3, "unit": "days"},
      {"measurement": "TGI (%)", "setting": "[3]; TGI at day 6, TGI=(1−ΔT/ΔC)×100%", "value": 46, "unit": "%"},
      {"measurement": "Weight Loss", "setting": "[3]; [5]", "value": 4, "unit": "%"}
    ]}
  ]
}
